Columns and labels:
S1PL2021 [1] = biological target: T1, S1PL2021 (Burkholderia pseudomallei, UniProt Q63IP8)
T1 construct: gene BPSS2021

S1PL2021 [2] = biological target: T1, S1PL2021; remark: listed apart in the source

T1 sequence (Q63IP8 21-493 limits assumed): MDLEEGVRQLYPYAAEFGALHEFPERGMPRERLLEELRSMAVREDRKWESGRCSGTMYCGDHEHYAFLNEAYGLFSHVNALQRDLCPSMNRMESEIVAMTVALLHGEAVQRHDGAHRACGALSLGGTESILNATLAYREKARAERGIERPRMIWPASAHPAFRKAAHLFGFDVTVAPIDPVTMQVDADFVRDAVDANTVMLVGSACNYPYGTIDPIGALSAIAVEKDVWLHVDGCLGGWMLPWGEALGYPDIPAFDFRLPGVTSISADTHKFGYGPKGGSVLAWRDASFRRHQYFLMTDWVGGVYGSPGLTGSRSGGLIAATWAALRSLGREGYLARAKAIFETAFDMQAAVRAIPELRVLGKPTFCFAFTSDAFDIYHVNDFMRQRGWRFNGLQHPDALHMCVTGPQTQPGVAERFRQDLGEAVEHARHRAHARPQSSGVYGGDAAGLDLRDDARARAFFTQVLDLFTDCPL

SMILES | UV-vis spectroscopy of PLP (S1PL2021 [1]) | X-ray crystal structure, 2.1 Å (S1PL2021 [2])
CCCCCCCCCCCCC/C=C/[C@@H](O)[C@@H](N)CO [D-erythro sphingosine] | S1PL2021 could also bind the nonphosphorylated substrate, D-erythro sphingosine | –
Cc1ncc(COP(=O)(O)O)c(C=O)c1O [PLP] | – | dimer of S1PL with the PLP cofactor present as an internal aldimine with residue K271
